“Also recorded” adds a separate entry of the source. Like-named read-outs stand apart in the source and are kept apart here.
Tests used:
[1] = tested on: A2780, A549 and MDA-MB-231 cells; conditions: cited from earlier work; for improvement with the addition of copper: with vs without copper
[2] = topical treatment of skin cancer; cited from earlier work
[3] = In vitro anti-proliferation of commercial G8HQ; format: cell-based
Description: The present inventors obtained a commercial sample of G8HQ and tested it in vitro under conditions with copper added and found a possible reading of >500 uM IC 50, indicating no anti-proliferative activity, but such examination was cursory and not conclusive. Of further relevance, Oliveri 2012 designed an O-linked glucose adducts to the 8-hydroxy position of both 8HQ and CQ (FIG. 17). The resulting pro-drug form as expected abrogated the copper binding and eliminated the anti-cancer activity. […] The authors reasoned that the glucose adduct would improve solubility, and the glucose receptors over-populated on the surface of cancer cells. The anaerobic metabolism and high dependence on glucose that characterizes most cancers is a phenomenon known as the “Warburg Effect”.

[4] = tested on: cancer cell lines; conditions: comparison Table 5; prior art compound; cited from earlier work
[5] = comparison Table 5; prior art compound; cited from earlier work
[6] = comparison Table 5; prior art compound; cited from earlier work; remark: listed apart in the source
[7] = tested on: RIF tumor; conditions: cited from earlier work
[8] = Chemical stability; format: physicochemical
[9] = Solubility; conditions: for solubility of copper complex: aqueous solutions
[10] = tested on: A549 cells; test: In vitro anti-proliferation (CellTiter-Glo, 72 hr), A549; format: cell-based, human; conditions: Homo sapiens, A549, 72 h, 72 hr
Description: (§1) Commercially available 8HQ and freshly synthesized G2-8HQ were prepared for in vitro anti-proliferative studies against the following cell lines with and without the presence of 10 μM Cu(+2): (1) A549: […]; (2) BT-549: epithelial cells from ductal tumor; (3) DU-145: human prostate cancer; (4) PANC-1: pancreatic cancer; (5) SU.86.86: a new adoptive pancreatic cell for immunotherapy studies; (6) RL: non-Hodgkin's lymphoma; (7) LnCAP, Prostate cancer cell line; (8) A431, a squamous cell carcinoma line; and (9) UACC-62 a malignant melanoma cell line.
(§2) With regard to the study protocol used, the objective was to conduct a study of the cytotoxicity of W1469 against several cancer cell lines. In the study protocol, preparations for the A549 (Lung) cell line screen are given as an example. The following materials were used: (1) FBS (2) RPMI-1640 medium supplemented with 10% FBS:’ and (3) A549 Cells. The four samples tested are referred to as Items 1-4 below and were placed at 4 °C upon arrival. These four samples were as follows: • Item 1: Tube A (W1469) (500 uM when FBS added) • Item 2: Tube B (W1469g) (1000 uM when FBS added) • Item 3: Tube C (W1469) • Item 4: Tube D (W1469g)
Items 1 and 2 are sterile ready for the addition of 1 ml of sterile FBS. Final concentrations after addition of 1 ml: 500 μM for Tube A and 1000 μM for Tube B. Items 3 and 4 are described further below. In the protocol, media containing 10% FBS and 20 μM CuCl2 are used in Tubes C and D only. A and B are serially diluted in media with 10% FBS and no added copper.
The protocol method proceeds as follows:
Seed 2, 96-well plates of A549 cells with 5,000 cells per well in a total volume of 50 μL per well. Leave overnight. See plate layout below for which wells to seed with 100 μL of media for media control. The following day, cells are exposed to compounds as described below.
For Items 1 & 2, to make the 500 μM and 1000 μM Stocks of samples 1 and 2 (W1469 and W1469g): Add 1 ml of sterile FBS to each Tube A and Tube B, swirl to mix.
To make appropriate 2× final dilutions of sample 1, Tube A (W1469), the following amounts are used: • 500 μM: 10 mL as supplied • 100 μM: 2 mL 500 μM Sample+8 mL media • 30 μM: 3 mL 100 μM Sample+7 mL media • 10 μM: 3 mL 30 μM Sample+6 mL media • 3 μM: 3 mL 10 μM Sample+7 mL media • 1 μM: 3 mL 3 μM Sample+6 mL media • 0.3 μM: 3 mL 1 μM Sample+7 mL media • 0.1 μM: 3 mL 0.3 μM Sample+6 mL media
To make appropriate 2× final dilutions of sample 2, Tube B (W1469g), the following amounts are used: • 1000 μM: 10 mL as supplied • 300 μM: 3 mL 1000 μM Sample+7 mL media • 100 μM: 3 mL 300 μM Sample+6 mL media • 30 μM: 3 mL 100 μM Sample+7 mL media • 10 μM: 3 mL 30 μM Sample+6 mL media • 3 μM: 3 mL 10 μM Sample+7 mL media • 1 μM: 3 mL 3 μM Sample+6 mL media • 0.3 μM: 3 mL 1 μM Sample+7 mL media
For Items 3 & 4, the following protocol was used to make 1000 uM Stocks of samples 3 and 4 (W1469 and W1469g): • 1: Dissolve 3.37 mg W1469 and excipient (Tube C) in 1 ml RPMI medium without added FBS and copper and swirl briefly until completely dissolved. Add 9 ml of RPMI media containing 10% FBS and 20 uM copper. Swirl to mix. Sterile filter the 10 ml with provided syringes and filters. This is now the 1000 μM stock solution W1469 ready for screening • 2: Dissolve 3.2 mg W1469g and excipient (Tube D) in 1 ml RPMI medium without added FBS and copper and swirl briefly until completely dissolved. […] This is now the 1000 μM stock solution W1469g ready for screening. […]

[11] = tested on: BT-549 cells; test: In vitro anti-proliferation (CellTiter-Glo, 72 hr), BT-549; format: cell-based; conditions: Homo sapiens, BT-549, 72 h, 72 hr, read-out: IC50
Description: as §1, §2
(§3) Add 50 μL of above 2× stocks to appropriate wells to expose appropriate cells to the final dilutions of samples. Add 50 μL media to media and cell control wells and 50 μL media mix to vehicle control wells. Cells are exposed for 72 hr. Following a 72 hr exposure to Sample, perform a CTG assay on all remaining plates.
(§4) At the end of the 72 hr exposure period, remove plates for CellTiter-Glo assay from 37 °C, 5% CO2 incubator and place on the bench at room temperature for 30 mins. Add 100 μL CellTiter-Glo reagent, mix for 2 mins, followed by a further 10 min incubation at room temperature. Record luminescence. Tables showing the resulting plate layouts are included below/

[12] = tested on: DU-145 cells; test: In vitro anti-proliferation (CellTiter-Glo, 72 hr), DU-145; format: cell-based, human; conditions: Homo sapiens, DU-145, 72 h, 72 hr, read-out: IC50
Description: as §1, §2, §3, §4

[13] = tested on: PANC-1 cells; test: In vitro anti-proliferation (CellTiter-Glo, 72 hr), PANC-1; format: cell-based; conditions: Homo sapiens, PANC-1, 72 h, 72 hr
Description: as §1, §2, §3, §4

[14] = tested on: SU.86.86 cells; test: In vitro anti-proliferation (CellTiter-Glo, 72 hr), SU.86.86; format: cell-based; conditions: Homo sapiens, SU.86.86, 72 h, 72 hr, read-out: IC50
Description: as §1, §2, §3, §4

[15] = tested on: RL cells; test: In vitro anti-proliferation (CellTiter-Glo, 72 hr), RL; format: cell-based; conditions: for IC50: 72 hr, read-out: IC50
Description: as §1, §2, §3, §4

[16] = +Cu (10 μM), G2-8HQ values based on MW of apo form (337)

For `OC[C@H]1O[C@@H](Oc2cccc3cccnc23)[C@H](O)[C@@H](O)[C@@H]1O` [Glu8HQ, 8-quinolinyl beta-D-glucopyranoside], which “activity relative to Glu8CQ” value ([1]; 20 μM Cu^+2) is on record?
Its value is 10 ×.

What about the “enhancement of IC50 by copper” value ([1]; 20 μM Cu^+2) of the same compound?
Its value is 18 ×.

And the “activity vs CQ analog” value ([1]; glucose derivatives, FIG. 18)?
The value was “greater activity than the CQ analog (GluCQ)”.

What about the “improvement with the addition of copper” value [1] of the same compound?
Its value is 10-20 fold.

For `CC(C)Cn1cnc2c(N)nc3ccccc3c21` [Zyclara, Alara (Imiquimod), Imiquimod], which “Side Effects” value [2] is on record?
The value was “headache or backpain, Diarrhea; also recorded: Redness, bleeding or flaking skin, swelling,; also recorded: blistering, sting or pain. Fatigue or tiredness,”.

For `O=C(O)[C@H]1O[C@@H](Oc2cccc3cccnc23)[C@H](O)[C@@H](O)[C@@H]1O` [G8HQ, 8-quinolinyl beta-D-glucopyranosiduronic acid], which activity ([3]; in vitro, without acidification) is on record?
Its activity is “no activity”.

What about the IC50 ([3]; with copper added, cursory and not conclusive) of the same compound?
The IC50 was over 500 µM.

And the “Active w/o Cu (cancer)” value [4]?
Its value is “No”.

And the “Solubility of Cu Complex/aqueous” value [5]?
Its value is “None”.

And the Complexes w/copper [6]?
The Complexes w/copper was “No”.

What about the tumor uptake ([7]; after acidification of tumors by hyperglycemia, mice) of the same compound?
Its tumor uptake is “rapid and significantly increased”.

And the retention ([7]; after tumor acidification, mice)?
Its retention is “prolonged retention in tumor and the colon over all other tissues”.

And the “tumor or general tissue partitioning” value ([7]; initial animal experiments, no acidification, mice)?
Its value is “no significant tumor or general tissue partitioning”.

What about the “metabolic clearance / elimination time” value ([7]; mice, post injection, listed as 8GHQ) of the same compound?
Its value is 3 h.

For `NCC(=O)CCC(=O)O` [Aminolaevulinic acid (Levulan), Aminolaevulinic acid], which “Side Effects” value [2] is on record?
The value was “Burning, Itching or Tingling, Rash or redness; also recorded: Light sensitivity (bright lights/sunshine)”.

For `O=C(O)[C@H]1O[C@@H](Oc2ccc3cccc(O)c3n2)[C@H](O)[C@@H](O)[C@@H]1O.[Cu+2]` [G2-8HQ copper complex], which “stability of copper complex” value ([8]; in excipient, 24 hours) is on record?
Its value is “precipitation after 24 hours”.

What about the “stability of copper complex” value ([8]; pH values less than 8) of the same compound?
The value was “rapid precipitated insoluble 2-8HQ copper complex”.

What about the “solubility of copper complex” value [9] of the same compound?
The value was “highly soluble in aqueous solutions”.

What does the source list for `OC[C@H]1O[C@@H](Oc2c(I)cc(Cl)c3cccnc23)[C@H](O)[C@@H](O)[C@@H]1O` [GluCQ, 5-chloro-7-iodo-8-quinolinyl-β-D-glucopyranoside]?
enhancement of IC50 by copper ([1]; 20 μM Cu^+2): 9 ×; improvement with the addition of copper [1]: about 2 fold

With `O=C(O)[C@H]1O[C@@H](Oc2cccc3cccnc23)[C@H](O)[C@@H](O)[C@@H]1O` [GA8HQ] as the compound, how does the “Active w/o Cu (cancer)” value [4] read?
The value was “No”.

What about the “Solubility of Cu Complex/aqueous” value [5] of the same compound?
Its value is “None, (8HQ poor)”.

What about the Complexes w/copper [6] of the same compound?
Its Complexes w/copper is “No”.

For `Oc1ccc2cccc(O)c2n1` [2-8HQ, 2,8-quinolinediol], which solubility ([9]; water / aqueous) is on record?
The solubility was “poor aqueous solubility; also recorded: insoluble in aqueous systems”.

What does the source list for `Oc1cccc2cccnc12` [8HQ, 8-hydroxyquinoline, reference compound]?
IC50 [10, 16]: 29 µM; IC50 ([10]; −Cu): 12.7 µM; IC50 [11, 16]: 24.5 µM; IC50 ([11]; −Cu): 9.9 µM; IC50 [12, 16]: 11.6 µM; IC50 ([12]; −Cu): 11.6 µM; IC50 [13, 16]: 11.2 µM; IC50 ([13]; −Cu): 9.3 µM; IC50 [14, 16]: 46 µM; IC50 ([14]; −Cu): > 50 µM; IC50 [15, 16]: 70 nM; IC50 ([15]; Homo sapiens, RL, 72 h, +Cu (10 μM), G2-8HQ values based on MW of apo form (337)): 60 nM; IC50 ([15]; Homo sapiens, RL, 72 h, −Cu): 620 nM; increase of activity/cytotoxicity in presence of copper ([15]; RL, +Cu^+2 (10 or 20 μM) vs −Cu): 9 fold; solubility ([9]; DMSO): soluble; solubility ([9]; water / aqueous): sparingly soluble; tissue levels of 8-OHQ ([7]; all tissues, 2.0 to 24 hr after glucuronide injection, n = 3): These data points, with n = 3 animals, also failed to show significant tissue levels of 8-OHQ.; cytotoxicity change with addition of Cu^+2 ([1]; addition of Cu^+2 to the media): significantly increased the cytotoxicity; activity relative to CQ ([1]; unmodified 8HQ vs CQ): 9 to 27 ×

Which “Side Effects” value [2] does the source give for `O=c1[nH]cc(F)c(=O)[nH]1` [Fluorouracil] here?
Its value is “tender skin, serious allergic reaction”.

Which “solubility of copper complex” value [9] does the source give for `Oc1cccc2cccnc12.[Cu+2]` [8HQ copper complex, reference compound] here?
The value was “aqueous insoluble”.
